Test results as given in publication PMC5070805 (Journal of medicinal chemistry, 2015).
Where a SMILES comes first, the peptide text is derived from it. Bridges are numbered along the chain shown (N, C = ends). [ ]: non-standard residue; d: D form. Nle = CCCC[C@H](N)C(=O)O

Experiments:
hMC3R [1] = target: T1, hMC3R (Homo sapiens, UniProt P41968); assay: Competition binding vs 125I-[Nle4,DPhe7]-α-MSH on whole HEK293 cells; conditions: text description
hMC3R [2] = target: T1, hMC3R; assay: Adenylate cyclase assay; format: cell-based; conditions: cAMP, text description
hMC4R [3] = target: T2, hMC4R (Homo sapiens, UniProt P32245); assay: Adenylate cyclase assay; format: cell-based; conditions: cAMP, text description
T2 sequence (P32245 whole entry): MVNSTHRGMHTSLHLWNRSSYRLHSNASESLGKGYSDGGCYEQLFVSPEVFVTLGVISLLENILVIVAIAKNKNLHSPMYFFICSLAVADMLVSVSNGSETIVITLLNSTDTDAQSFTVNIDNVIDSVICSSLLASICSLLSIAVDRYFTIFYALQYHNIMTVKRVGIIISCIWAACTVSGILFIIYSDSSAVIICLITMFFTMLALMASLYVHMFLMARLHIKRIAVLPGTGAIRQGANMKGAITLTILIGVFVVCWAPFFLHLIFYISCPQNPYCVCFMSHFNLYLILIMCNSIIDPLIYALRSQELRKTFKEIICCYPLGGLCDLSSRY

hMC5R [4] = target: T3, hMC5R (Homo sapiens, UniProt P33032); assay: Adenylate cyclase assay; format: cell-based; conditions: cAMP, text description
T3 sequence (P33032 whole entry): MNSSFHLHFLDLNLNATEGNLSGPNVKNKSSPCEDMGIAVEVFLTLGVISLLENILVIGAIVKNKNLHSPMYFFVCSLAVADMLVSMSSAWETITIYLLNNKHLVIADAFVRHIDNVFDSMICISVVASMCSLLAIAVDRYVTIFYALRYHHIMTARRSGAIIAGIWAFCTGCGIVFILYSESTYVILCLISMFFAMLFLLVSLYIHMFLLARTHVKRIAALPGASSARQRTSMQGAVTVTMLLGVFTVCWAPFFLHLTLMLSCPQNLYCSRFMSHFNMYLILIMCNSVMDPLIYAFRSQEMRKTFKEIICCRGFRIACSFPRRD

hMC1R [5] = target: T4, hMC1R (Homo sapiens, UniProt Q01726); assay: Competition binding vs 125I-[Nle4,DPhe7]-α-MSH on whole HEK293 cells; conditions: text description
T4 sequence (Q01726 whole entry): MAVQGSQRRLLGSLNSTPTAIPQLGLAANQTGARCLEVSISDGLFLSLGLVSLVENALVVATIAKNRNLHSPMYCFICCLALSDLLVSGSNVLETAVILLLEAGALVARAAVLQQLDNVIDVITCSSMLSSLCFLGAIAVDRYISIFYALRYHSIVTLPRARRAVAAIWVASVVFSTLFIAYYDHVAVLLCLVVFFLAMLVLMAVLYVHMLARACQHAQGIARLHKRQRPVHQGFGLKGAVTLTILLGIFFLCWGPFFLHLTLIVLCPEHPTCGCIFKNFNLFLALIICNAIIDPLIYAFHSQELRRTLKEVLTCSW

hMC5R [6] = target: T3, hMC5R; assay: as above; conditions: text description
hMC4R [7] = target: T2, hMC4R; assay: as above; conditions: text description
hMC1R [8] = target: T4, hMC1R; assay: Adenylate cyclase assay; format: cell-based; conditions: cAMP, text description

T1 sequence (P41968 whole entry): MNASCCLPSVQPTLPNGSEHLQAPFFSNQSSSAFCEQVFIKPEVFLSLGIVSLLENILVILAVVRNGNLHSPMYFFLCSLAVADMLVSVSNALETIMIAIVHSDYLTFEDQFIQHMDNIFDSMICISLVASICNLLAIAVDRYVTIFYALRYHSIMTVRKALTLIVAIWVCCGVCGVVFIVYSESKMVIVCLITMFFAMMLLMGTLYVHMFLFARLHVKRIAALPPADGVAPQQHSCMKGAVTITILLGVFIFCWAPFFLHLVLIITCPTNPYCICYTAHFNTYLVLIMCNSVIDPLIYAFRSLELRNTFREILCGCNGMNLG

| binding at hMC3R (in words) (hMC3R [1]) | functional activity at hMC3R (in words) (hMC3R [2]) | functional activity at hMC4R (in words) (hMC4R [3]) | functional activity at hMC5R (in words) (hMC5R [4]) | binding at hMC1R (in words) (hMC1R [5]) | binding at hMC5R (in words) (hMC5R [6]) | binding at hMC4R (in words) (hMC4R [7]) | functional activity at hMC1R (in words) (hMC1R [8]) | Structure (SMILES) |
| --- | --- | --- | --- | --- | --- | --- | --- | --- |
| low binding affinity | undetectable activity | undetectable activity | undetectable activity | no appreciable binding | no appreciable binding | low binding affinity | low potency | CCCC[C@H](NC(C)=O)C(=O)N[C@H]1CC(=O)NCCCC[C@@H](C(N)=O)NC(=O)[C@H](Cc2c[nH]c3ccccc23)NC(=O)[C@H](CCCNC(=N)N)NC(=O)[C@@H](Cc2ccccc2)NC(=O)[C@@H]2CCCN2C(=O)[C@@H]2CCCN2C1=O [compound 1, Ac-Nle-c[D-P-P-DPhe-R-W-K]-NH2] (Ac-[Nle]DPP[dF]RWK-NH2; lactam 2-8) |
| weak binding | no stimulation of cAMP accumulation | weak and moderate activation | weak and moderate activation | no affinity | no affinity | no affinity | weak and moderate activation | CCCC[C@H](NC(C)=O)C(=O)N[C@H]1CC(=O)NCCCC[C@@H](C(N)=O)NC(=O)[C@H](Cc2c[nH]c3ccccc23)NC(=O)[C@H](CCCNC(=N)N)NC(=O)[C@@H](Cc2ccccc2)NC(=O)[C@@H]2CCCN2C(=O)[C@H](Cc2c[nH]c3ccccc23)NC1=O [compound 3, Ac-Nle-c[D-W-P-DPhe-R-W-K]-NH2] |
